Laboratory results reported in US20070208074A1, “Methods and compositions for treating and preventing tumors” (priority 2006, published 2007).

Tests used:
[1] = test system: U87-S3C cells; assay: Cell spreading assay on myelin; format: cell-based; conditions: recombinant human IL-8 50 ng/ml vs untreated U87-S3C cells on myelin; n=3, p<0.0005
Description: FIG. 4I is a graph quantifying the level of normalized cell spreading. IL-8 addition rescues STAT3 suppression of glioma cell spreading on myelin.
1×10^4 cells were seeded onto glass coverslips pre-coated with polyornithine ([…]) and additionally coated with PBS or 20 μg/ml myelin. Where indicated recombinant human IL-8 (R&D) was added at a concentration of 50 ng/ml. Cells were incubated at 37° C. for 1 hour to attach and then fixed with 4% paraformaldehyde for 20 minutes at RT. Coverslips were stained with phallotoxin for 20 minutes according to the manufacturer's directions (Molecular probes). Nuclei were counterstained with 0.2 μg/ml Hoechst (Sigma). Spread versus unspread cells were counted blind, and a percentage of spread cells over the total number of cells calculated. Pictures were taken at 60× using a Nikon inverted microscope.

[2] = test system: LN229 cells; assay: Population growth with LIF after lentiviral infection; format: cell-based, human; conditions: LIF 10 ng/ml daily; control lentivirus-infected LN229; n=3, p<0.05
Description: FIG. 2D is a pair of immmunoblots showing STAT3 and actin levels in 293T cells infected with either control lentivirus or lentivirus encoding one of two small interfering hairpin RNAs directed at STAT3 and selected with puromycin (left panel). […] The right panel is a graph showing population growth of LN229 cells infected with control lentivirus or lentivirus encoding stat3i1 or stat3i2 and selected with puromycin.
Recombinant retroviruses were made by transfecting 293T cells with pMD.MLV gag.pol, pHDM.G (VSVG pseudotype), and the transfer plasmid (i.e. pBABE). Cells were infected with equal amounts of retroviruses in the presence of 8 μg/ml polybrene (Sigma). A population of infected cells for each construct was collected by sorting cells for GFP expression. PTEN−/− astrocytes were infected with pBABE or pBABE/S3C retroviruses and infected cells were selected with puromycin (4 μg/ml). PTEN flox/flox astrocytes were infected with MyrAkt and infected cells were selected with 250 μg/ml hygromycin (Invitrogen). Cloning of recombinant lentiviruses coding for a short hairpin RNA directed against STAT3 or human IL-8 was carried out using the pLL3.7 vector. […]

[3] = test system: SF188 cells; assay: Growth curve / population growth with LIF; format: cell-based, human
Description: (§1) FIG. 2B is a series of graphs showing growth curves of PTEN-mutant glioma cell lines (U87 and A172) and PTEN-expressing (SF188) glioma cells lines that were treated with LIF (10 ng/ml daily) or left untreated.
FIG. 2C is a bar graph showing the population growth of SF188 cells infected with a retrovirus containing an IRES-GFP cassette alone or that also encodes wild type STAT3 or a dominant negative STAT3 (S3D).

[4] = test system: rat neural stem cells; assay: BrdU incorporation with LIF; format: cell-based; conditions: LIF 10 ng/ml, 48 hrs; vector-infected cells vs no treatment; n=3, p<0.05
Description: FIG. 2E (right panel) is a bar graph showing BrdU incorporation in rat neural stem cells treated with LIF (10 ng/ml, 48 hrs) following infection with lentivirus and selection with puromycin.

[5] = test system: control neuroblastoma cell line SK-N-MC; assay: LIF-induced STAT3 tyrosine phosphorylation, immunoblot; format: cell-based; conditions: serum starved 24 hours, 10 ng/ml LIF for 15 minutes
[6] = test system: A172 cells; assay: Growth curve with LIF; format: cell-based, human; conditions: LIF 10 ng/ml daily; PTEN-deficient cell line
Description: as §1

[7] = test system: U87 cells; assay: Growth curve with LIF; format: cell-based, human; conditions: LIF 10 ng/ml daily; PTEN-deficient cell line
Description: as §1

[8] = test system: PTEN-deficient glioma cells (U87, A172, and U138); assay: LIF-induced STAT3 tyrosine phosphorylation, immunoblot; format: cell-based, human; conditions: serum starved 24 hours, 10 ng/ml LIF for 15 minutes
Description: (§2) FIG. 2A is a series of immunoblots showing the levels of PYS3 and STAT3 in glioma cells that harbor PTEN mutations (U87, A172, and U138) or that express wild type PTEN (SF188 and LN229) with the STAT3 and PYS3 antibodies. Cells were serum starved for 24 hours and then treated with 100 ng/ml CNTF (C) or 10 ng/ml LIF (L) for 15 minutes.
(§3) The inhibition of the STAT3 signaling pathway was also evident in human glioma cell lines that harbor PTEN mutations.

[9] = test system: wild type PTEN-expressing glioma cells (SF188 and LN229); assay: as above; format: cell-based, human; conditions: serum starved 24 hours, 10 ng/ml LIF for 15 minutes
Description: as §2, §3

| Substance | cell spreading on myelin [1] | population growth [2] | cell population growth ([3]; LIF 10 ng/ml daily vs untreated, n=3, p<0.05) | population growth ([3]; LIF 10 ng/ml daily, SF188 infected with control-vector or wild type STAT3 retrovirus, n=3, p<0.01) | BrdU incorporation [4] | STAT3 tyrosine phosphorylation [5] | proliferation [6] | proliferation [7] | STAT3 tyrosine phosphorylation [8] | STAT3 tyrosine phosphorylation [9] |
| --- | --- | --- | --- | --- | --- | --- | --- | --- | --- | --- |
| IL-8: recombinant human IL-8 (R&D) added at 50 ng/ml | significantly more U87-S3C cells spread on myelin |  |  |  |  |  |  |  |  |  |
| LIF: cytokine ligand of leukemia inhibitory factor receptorβ (LIFRβ), used at 10 ng/ml |  | significant reduction in growth | significantly reduced | significant reduction in population growth | significantly less BrdU incorporation | robustly induced STAT3 tyrosine phosphorylation | little effect on the proliferation | little effect on the proliferation | failed to effectively induce the STAT3 phosphorylation | robustly induced STAT3 tyrosine phosphorylation |
